Results published in patent publication US20230150951A1, “2,5- OR 2,6-DISUBSTITUTED HYDROQUINONE DERIVATIVES WITH AT LEAST ONE CARBOXY, SULFO OR AMIDO GROUP USEFUL AS MEDICAMENTS” (OM PHARMA SA, priority 2020, published 2023).
Where two headings read alike, the source gives them in different places.

How the values were obtained:
Type in all cases: cell-based
IL-1beta = experiment: Cytokine release after LPS induction on human whole blood: IL-1β
Protocol: (§1) Aim of this in vitro method is to assess compounds effects on release of a panel of cytokines from whole blood following lipopolysaccharide (LPS) induced inflammatory reaction. Whole blood was incubated with compounds for 1 h prior to LPS induction. Cytokine levels in blood were measured using a multiplex FACS-based panel.
(§2) IC50 values determined for the tested compounds expressed in microM [μM] and the values for the inhibition of cytokines were listed for each compound.
(§3) Effect on cytokines release after LPS induction was performed on the compounds dissolved in DMSO or H2O to reach 10-fold concentrated stock solutions and dissolved in culture media.
(§4) Test system: Whole blood was removed from a single donor (into lithium heparin coated tubes; BD Vacutainer; 367886) and diluted 1:5 with RPMI 1640 (Thermo Fisher, 61870036). Within 30 minutes of sampling, blood was incubated with compounds for 1 h prior to LPS stimulation (O111:B4—Sigma L4391; 10 ng/ml final concentration). Stimulation continued under standard cell culture conditions (37° C. with 5% CO2) overnight (18 h), after which plates were centrifuged and supernatant removed and frozen at −80° C. until used for analyses.
(§5) Dilution of test compounds: 10×concentrated solutions (concerning to the final assay concentrations) of each test compound were prepared with the appropriate solvent (in DMSO or in water). These 10× compound solutions (10 μl) were then added to 90 μl pre-diluted whole blood (whole blood: RPMI1640, 1:5) resulting in the final assay concentration.
(§6) Test method: Diluted whole blood (80 μl) was pre-incubated with compounds (10 μl) to give final assay concentrations of 100, 30, 10, 3, 1, 0.3 and 0.1×10^−6M. Blood was incubated at 37° C. with 5% CO2 for 1 h. LPS was diluted in cell culture media to a concentration of […]; 10 μl was added to the whole blood to give a final concentration of 10 ng/ml. Plates were incubated at 37° C. for 18 h. Plates were centrifuged at 3,000 RPM for 5 minutes at 4° C. and supernatant removed and frozen at −80° C. until FACS analysis was carried out.
(§7) Cytokine release was measured using a custom multiplex system (ELISA Genie) according to manufacturers instructions. Prepared samples were run on an Attune NxT flow cytometer (Thermo Fisher).
(§8) Quantification of cytokine release inhibition: known concentration standards were run as part of the cytokine panel to allow quantification of each cytokine concentration in each sample. This was carried out using FCAP Array v3.0 software.
(§9) Results: The dose response relationship on cytokine release following LPS induction of inflammatory response in whole blood was assessed for all compounds. IC50 values were determined for each compound for a panel of cytokines (GM-CSF, IFN-gamma, IL-1beta, IL-2, IL-4, IL-5, IL-6, IL-8, IL-9, IL-10, IL-12p40, IL-13, IL-17A, IL-17F, IL-18, IL-21, IL-22, IL-33, TGF-beta, TNF-alpha, TNF-beta).

IL-5 = experiment: Cytokine release after LPS induction on human whole blood: IL-5
Protocol: as §1, §2, §3, §4, §5, §6, §7, §8, §9

IFN-gamma = experiment: Cytokine release after LPS induction on human whole blood: IFNγ
Protocol: as §1, §2, §3, §4, §5, §6, §7, §8, §9

IL-13 = experiment: Cytokine release after LPS induction on human whole blood: IL-13
Protocol: as §1, §2, §3, §4, §5, §6, §7, §8, §9

IL-33 = experiment: Cytokine release after LPS induction on human whole blood: IL-33
Protocol: as §1, §2, §3, §4, §5, §6, §7, §8, §9

IL-4 = experiment: Cytokine release after LPS induction on human whole blood: IL-4
Protocol: as §1, §2, §3, §4, §5, §6, §7, §8, §9

Human neutrophils = experiment: Inhibition of ROS production in human neutrophils (isoluminol chemiluminescence); details: Homo sapiens, Neutrophil, fMLP+TNF-α stimulated PMN
Method in brief: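 Extracellular ROS measured as isoluminol-amplified chemiluminescence following 1 μM fMLP activation on fibrinogen-coated plates, readings every 25 sec over 250 sec minus HBSS/isoluminol background. Beforehand, cells were treated with compounds at 0.1, 0.3, 1, 3 or 10 μM (30 min, 37° C) and TNF-α (20 ng/ml, 10 min); duplicate or triplicate.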

TNF-alpha = experiment: Cytokine release after LPS induction on human whole blood: TNFα
Protocol: as §1, §2, §3, §4, §5, §6, §7, §8, §9

TGF-beta = experiment: Cytokine release after LPS induction on human whole blood: TGFβ
Protocol: as §1, §2, §3, §4, §5, §6, §7, §8, §9

[1] = Homo sapiens, LPS 10 ng/ml, 18 h, read-out: Whole Blood: IL-1β IC50
[2] = human whole blood, inhibition of LPS induced inflammation, read-out: IC50 IL-1b
[3] = Homo sapiens, LPS 10 ng/ml, 18 h, read-out: Whole Blood: IL-5 IC50
[4] = human whole blood, inhibition of LPS induced inflammation, read-out: IC50 IL-5
[5] = Homo sapiens, LPS 10 ng/ml, 18 h, read-out: Whole Blood: IFNγ IC50
[6] = human whole blood, inhibition of LPS induced inflammation, read-out: IC50 IFNγ
[7] = Homo sapiens, LPS 10 ng/ml, 18 h, read-out: Whole Blood: IL-13 IC50
[8] = human whole blood, inhibition of LPS induced inflammation, read-out: IC50 IL-13
[9] = Homo sapiens, LPS 10 ng/ml, 18 h, read-out: Whole Blood: IL-33 IC50
[10] = human whole blood, inhibition of LPS induced inflammation, read-out: IC50 IL-33
[11] = Homo sapiens, LPS 10 ng/ml, 18 h, read-out: Whole Blood: IL-4 IC50
[12] = human whole blood, inhibition of LPS induced inflammation, read-out: IC50 IL-4
[13] = Homo sapiens, LPS 10 ng/ml, 18 h, read-out: Whole Blood: TNF α IC50
[14] = human whole blood, inhibition of LPS induced inflammation, read-out: IC50 TNFa
[15] = Homo sapiens, LPS 10 ng/ml, 18 h, read-out: Whole Blood: TGFβ IC50
[16] = human whole blood, inhibition of LPS induced inflammation, read-out: IC50 TGFbeta

| IC50 (IL-1beta; [1]) [µM] | IC50 (IL-1beta; [2]) [µM] | IC50 (IL-5; [3]) [µM] | IC50 (IL-5; [4]) [µM] | IC50 (IFN-gamma; [5]) [µM] | IC50 (IFN-gamma; [6]) [µM] | IC50 (IL-13; [7]) [µM] | IC50 (IL-13; [8]) [µM] | IC50 (IL-33; [9]) [µM] | IC50 (IL-33; [10]) [µM] | IC50 (IL-4; [11]) [µM] | IC50 (IL-4; [12]) [µM] | IC50 (Human neutrophils) [µM] | IC50 (TNF-alpha; [13]) [µM] | IC50 (TNF-alpha; [14]) [µM] | IC50 (TGF-beta; [15]) [µM] | IC50 (TGF-beta; [16]) [µM] | Compound | inhibition at 0.3 µM (Human neutrophils) [%] |
| --- | --- | --- | --- | --- | --- | --- | --- | --- | --- | --- | --- | --- | --- | --- | --- | --- | --- | --- |
| > 100 | 100 | > 100 | 100 | 2.79 | 2.79 | 33 | 33 | 20 | 20 | > 100 | 100 | 6.52 | 0.98 | 0.98 | > 100 | 100 | CCOC(=O)c1cc(NC(=O)c2cc(O)c(C(=O)OCC)cc2O)cc(NC(=O)c2cc(O)c(C(=O)OCC)cc2O)c1 [Ib-010a-E3, ethyl 3,5-bis(2,5-dihydroxy-4-ethoxycarbonylbenzoylamino)benzoate] | 36.4 |
| > 100 | 100 | > 100 | 100 | 0.54 | 0.54 | 0.13 | 0.13 | 0.29 | 0.29 | > 100 | 100 |  | 0.11 | 0.11 | > 100 | 100 | O=C(O)c1cc(O)ccc1NC(=O)c1cc(O)cc(C(=O)Nc2ccc(O)cc2C(=O)O)c1O [IIc-009a, 2-(3-(2-carboxy-4-hydroxyphenylaminocarbonyl)-2,5-dihydroxybenzamido)-5-hydroxyl benzoic acid] | 75.3 |
